Assays:
Trypanosoma cruzi [1] = assay: In vitro antiparasitic activity against Trypanosoma cruzi (amastigotes); type: functional, organism-based
Trypanosoma cruzi [2] = assay: In vitro antiparasitic activity against Trypanosoma cruzi (epimastigotes); type: functional, organism-based
Trypanosoma cruzi [3] = assay: In vitro […] antiparasitic activity against Trypanosoma cruzi at 70 uM (amastigotes); type: functional
Trypanosoma cruzi [4] = assay: In vitro […] antiparasitic activity against Trypanosoma cruzi at 50 uM (amastigotes); type: functional

IC50 (Trypanosoma cruzi [1]) | IC50 (Trypanosoma cruzi [2]) | SMILES | inhibition at 70 µM (Trypanosoma cruzi [3]) | inhibition at 50 µM (Trypanosoma cruzi [4])
65.8 µM | > 70 µM | CCCCCCCCC(O)(P(=O)(O)O)P(=O)(O)O | – | –
> 50 µM | – | O=P(O)(O)C(O)(COc1ccc(Oc2ccccc2)cc1)P(=O)(O)O | 23% | –
> 50 µM | – | O=P(O)(O)C(O)(COc1ccc(Cl)cc1Cl)P(=O)(O)O | – | 37%
> 70 µM | > 70 µM | CCCCCCCC(O)(P(=O)(O)O)P(=O)(O)O | 41% | –
70 µM | > 70 µM | CCCCCC(O)(P(=O)(O)O)P(=O)(O)O | 34% | –
> 70 µM | – | O=P(O)(O)C(O)(COc1ccccc1)P(=O)(O)O | 16% | –
> 70 µM | > 70 µM | CCCCCCCCCC(O)(P(=O)(O)O)P(=O)(O)O | 10% | –
18.1 µM | > 70 µM | CCCCCCC(O)(P(=O)(O)O)P(=O)(O)O | – | –
53.5 µM | – | CCCCCCCCCCCCCC(O)(P(=O)(O)O)P(=O)(O)O | – | –
65 µM | – | NCCCC(O)(P(=O)(O)O)P(=O)(O)O [ALENDRONIC ACID] | – | –
65 µM | – | NCCC(O)(P(=O)(O)O)P(=O)(O)O [PAMIDRONIC ACID] | – | –
300 µM | – | O=P(O)(O)C(O)(Cc1cccnc1)P(=O)(O)O [RISEDRONIC ACID] | – | –

SMILES | IC50 (Trypanosoma cruzi [1]) | IC50 (Trypanosoma cruzi [2]) | inhibition at 70 µM (Trypanosoma cruzi [3]) | inhibition at 50 µM (Trypanosoma cruzi [4])
CCCC(O)(P(=O)(O)O)P(=O)(O)O | 21.4 µM | > 70 µM | – | –

Source: ChEMBL document CHEMBL1134235, “Bisphosphonates derived from fatty acids are potent growth inhibitors of Trypanosoma cruzi” (Bioorg Med Chem Lett, 2001)
